The source of these data is ChEMBL document CHEMBL1909046, “DrugMatrix in vitro pharmacology data”.

For experiment [1], the target named is T1, Estrogen receptor (Homo sapiens, UniProt P03372). Further: in other assays of this panel Not Active means under 50% inhibition at 10 µM.
T1 sequence (P03372 whole entry): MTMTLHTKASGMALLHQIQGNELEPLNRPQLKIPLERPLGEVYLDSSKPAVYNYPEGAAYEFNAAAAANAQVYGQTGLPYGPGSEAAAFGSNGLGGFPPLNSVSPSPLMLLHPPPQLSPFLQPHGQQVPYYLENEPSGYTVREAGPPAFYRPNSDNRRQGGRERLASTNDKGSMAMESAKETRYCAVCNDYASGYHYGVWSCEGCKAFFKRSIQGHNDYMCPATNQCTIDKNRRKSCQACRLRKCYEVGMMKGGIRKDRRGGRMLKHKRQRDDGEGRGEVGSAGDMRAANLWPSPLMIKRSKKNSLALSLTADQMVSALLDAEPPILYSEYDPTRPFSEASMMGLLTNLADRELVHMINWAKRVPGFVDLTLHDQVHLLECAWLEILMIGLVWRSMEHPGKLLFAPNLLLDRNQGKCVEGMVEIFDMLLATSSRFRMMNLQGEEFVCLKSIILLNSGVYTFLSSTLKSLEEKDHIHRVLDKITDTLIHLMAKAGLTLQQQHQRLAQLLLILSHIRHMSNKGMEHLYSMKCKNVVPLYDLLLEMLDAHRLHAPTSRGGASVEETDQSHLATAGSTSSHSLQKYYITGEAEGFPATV
Particulars: sf9.

Experiment [2] concerns the target Mitogen-activated protein kinase 14 (Homo sapiens, UniProt Q16539). Also noted: species or system Escherichia coli.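 Further: inhibition of p38alpha enzyme activity in a biochemical kinase assay, with myelin basic protein serving as substrate; in other assays of this panel Not Active means under 50% inhibition at 10 µM.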
The target of experiment [3] is T2, Polyunsaturated fatty acid lipoxygenase ALOX15 (Oryctolagus cuniculus, UniProt P12530).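 Further: inhibition of 15-lipoxygenase enzyme activity measured with linoleic acid as the substrate; in other assays of this panel Not Active means under 50% inhibition at 10 µM.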
T2 sequence (P12530 whole entry): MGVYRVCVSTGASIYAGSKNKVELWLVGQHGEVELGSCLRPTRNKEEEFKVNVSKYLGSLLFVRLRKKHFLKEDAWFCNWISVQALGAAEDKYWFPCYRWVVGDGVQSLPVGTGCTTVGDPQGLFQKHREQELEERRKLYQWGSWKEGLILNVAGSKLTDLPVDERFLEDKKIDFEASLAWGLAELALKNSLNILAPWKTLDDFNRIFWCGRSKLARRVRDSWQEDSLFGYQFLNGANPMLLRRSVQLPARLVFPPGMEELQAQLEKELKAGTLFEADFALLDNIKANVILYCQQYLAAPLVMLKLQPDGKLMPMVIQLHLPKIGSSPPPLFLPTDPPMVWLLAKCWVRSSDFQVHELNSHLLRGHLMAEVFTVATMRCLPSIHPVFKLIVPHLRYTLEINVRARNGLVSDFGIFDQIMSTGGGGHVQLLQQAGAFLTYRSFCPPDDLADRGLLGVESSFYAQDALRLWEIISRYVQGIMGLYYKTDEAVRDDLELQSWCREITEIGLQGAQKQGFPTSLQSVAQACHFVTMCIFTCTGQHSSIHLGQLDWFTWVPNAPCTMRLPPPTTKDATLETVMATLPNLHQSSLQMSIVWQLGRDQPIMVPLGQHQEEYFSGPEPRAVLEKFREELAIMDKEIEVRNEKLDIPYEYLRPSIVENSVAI
Put plainly: biochemical. It is filed as tissue-based, Reticulocytes.

The target of experiment [4] is D(3) dopamine receptor (Homo sapiens, UniProt P35462). The experiment is described as follows: DRUGMATRIX: Dopamine D3 radioligand binding (ligand: [3H] Spiperone). It is filed as cell membranes, CHO, Membrane.
Sequence of D(3) dopamine receptor (P35462 whole entry): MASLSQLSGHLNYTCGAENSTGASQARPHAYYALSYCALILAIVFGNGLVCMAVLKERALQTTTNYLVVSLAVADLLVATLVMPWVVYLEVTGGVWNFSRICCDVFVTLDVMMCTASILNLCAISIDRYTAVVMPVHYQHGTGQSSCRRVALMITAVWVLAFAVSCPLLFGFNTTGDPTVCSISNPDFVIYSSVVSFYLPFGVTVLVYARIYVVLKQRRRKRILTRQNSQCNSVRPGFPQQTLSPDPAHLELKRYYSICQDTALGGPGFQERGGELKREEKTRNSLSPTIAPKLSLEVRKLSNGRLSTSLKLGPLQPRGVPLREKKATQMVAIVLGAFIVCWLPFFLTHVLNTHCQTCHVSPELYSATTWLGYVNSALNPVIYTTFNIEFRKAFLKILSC
A short description of experiment [5]: DRUGMATRIX: GABAA, Flunitrazepam, Central radioligand binding (ligand: [3H] Flunitrazepam). It is filed as cell membranes, Rattus norvegicus, Wistar, Brain, Membrane. Particulars: Not Active = under 50% inhibition at 10 µM.
Experiment [6] has as its target T3, Receptor-type tyrosine-protein phosphatase C (Homo sapiens, UniProt P08575).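 Further: inhibition of CD45 enzyme activity measured using DiFMUP as substrate; in other assays of this panel Not Active means under 50% inhibition at 10 µM.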
T3 sequence (P08575 whole entry): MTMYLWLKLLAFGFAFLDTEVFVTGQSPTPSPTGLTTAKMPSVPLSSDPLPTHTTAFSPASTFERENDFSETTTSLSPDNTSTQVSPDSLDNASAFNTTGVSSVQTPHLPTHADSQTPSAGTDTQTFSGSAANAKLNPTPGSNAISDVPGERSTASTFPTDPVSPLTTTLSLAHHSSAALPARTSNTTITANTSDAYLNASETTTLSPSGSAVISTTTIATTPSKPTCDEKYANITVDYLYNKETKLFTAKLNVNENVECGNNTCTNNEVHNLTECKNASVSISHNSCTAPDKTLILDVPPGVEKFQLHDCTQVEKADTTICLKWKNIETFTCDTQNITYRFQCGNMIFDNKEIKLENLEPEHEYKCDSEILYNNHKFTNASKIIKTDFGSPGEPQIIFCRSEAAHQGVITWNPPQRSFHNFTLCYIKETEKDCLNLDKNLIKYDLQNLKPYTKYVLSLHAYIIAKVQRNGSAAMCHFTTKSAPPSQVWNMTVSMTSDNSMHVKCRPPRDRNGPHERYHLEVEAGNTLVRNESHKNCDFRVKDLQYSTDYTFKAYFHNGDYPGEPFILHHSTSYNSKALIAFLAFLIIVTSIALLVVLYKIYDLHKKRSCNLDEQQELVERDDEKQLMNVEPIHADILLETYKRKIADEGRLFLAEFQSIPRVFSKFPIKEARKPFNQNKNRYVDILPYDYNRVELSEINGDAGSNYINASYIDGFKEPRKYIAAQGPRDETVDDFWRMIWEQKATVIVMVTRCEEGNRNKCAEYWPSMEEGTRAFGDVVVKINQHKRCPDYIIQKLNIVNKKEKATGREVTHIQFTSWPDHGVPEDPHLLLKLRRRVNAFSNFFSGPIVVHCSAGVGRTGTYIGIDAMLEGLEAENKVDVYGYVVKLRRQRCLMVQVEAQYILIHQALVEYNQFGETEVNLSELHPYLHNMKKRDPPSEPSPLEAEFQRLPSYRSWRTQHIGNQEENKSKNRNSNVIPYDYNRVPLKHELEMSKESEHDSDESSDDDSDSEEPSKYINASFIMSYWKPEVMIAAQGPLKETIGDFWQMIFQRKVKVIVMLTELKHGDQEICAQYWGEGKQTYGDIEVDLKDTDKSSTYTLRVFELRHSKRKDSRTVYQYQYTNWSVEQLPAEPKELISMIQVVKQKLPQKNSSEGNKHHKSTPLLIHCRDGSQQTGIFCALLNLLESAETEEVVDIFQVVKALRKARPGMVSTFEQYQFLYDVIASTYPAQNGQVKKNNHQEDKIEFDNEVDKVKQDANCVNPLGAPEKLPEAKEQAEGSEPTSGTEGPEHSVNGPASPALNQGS
Also noted: species or system Escherichia coli.

Sequence of Mitogen-activated protein kinase 14 (Q16539 whole entry): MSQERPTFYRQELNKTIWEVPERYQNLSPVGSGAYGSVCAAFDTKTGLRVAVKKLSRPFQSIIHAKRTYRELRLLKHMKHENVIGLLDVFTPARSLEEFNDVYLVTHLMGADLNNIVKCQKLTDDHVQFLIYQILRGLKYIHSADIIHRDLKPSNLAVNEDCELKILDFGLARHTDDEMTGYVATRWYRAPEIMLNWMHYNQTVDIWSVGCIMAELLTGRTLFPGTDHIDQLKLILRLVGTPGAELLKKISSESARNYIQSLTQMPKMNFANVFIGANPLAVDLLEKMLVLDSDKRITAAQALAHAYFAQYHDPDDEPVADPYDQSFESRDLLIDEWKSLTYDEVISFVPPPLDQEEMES

For the compound `COc1cc(/C=C/C(=O)O)ccc1O` [FERULATE], the IC50 result in experiment [1] was “Not Active”; in experiment [2] it was “Not Active”; in experiment [3] (read-out: IC50), 3980 nM; in experiment [4] (cho), “Not Active”; in experiment [5], “Not Active”; in experiment [6], “Not Active”. Besides, the Ki entry in experiment [5] is given as “Not Active”.

For the compound `O=c1[nH]c2ccccc2c2ccccc12`, the IC50 entry in experiment [1], in experiment [2], in experiment [3] (reticulocytes), in experiment [4] (cho), in experiment [5] and in experiment [6] was “Not Active” in each case. For the same compound, the Ki entry in experiment [5] was “Not Active”.

As to `COc1ccc(C[C@H](N)C(=O)N[C@H]2[C@@H](O)[C@H](n3cnc4c(N(C)C)ncnc43)O[C@@H]2CO)cc1` [PUROMYCIN], the IC50 entry in experiment [1], in experiment [2], in experiment [3] (reticulocytes), in experiment [4] (cho), in experiment [5] and in experiment [6] was “Not Active” each time. Also, the Ki entry in experiment [5] is given as “Not Active”.

Consider `NC(=O)NC(=O)Cc1ccccc1` [PHENACEMIDE], for which the half-inhibitory concentration (IC50) entry in experiment [1], in experiment [2], in experiment [3] (reticulocytes), in experiment [4] (cho), in experiment [5] and in experiment [6] was “Not Active” in each case. The Ki result in experiment [5] is “Not Active”.

For the compound `COc1ccccc1OCCNCC(O)COc1cccc2[nH]c3ccccc3c12` (configuration not stated) [CARVEDILOL], the 50% inhibitory concentration (IC50) entry was “Not Active” in experiment [1]; “Not Active” in experiment [2]; “Not Active” in experiment [3] (reticulocytes); 577 nM in experiment [4] (read-out: IC50); “Not Active” in experiment [5]; “Not Active” in experiment [6]. Further, the Ki was 196 nM in experiment [4] (read-out: Ki) and “Not Active” in experiment [5].

In the case of `CC(N)Cc1c[nH]c2ccc(OCc3cccs3)cc12` (configuration not stated) [BW-723C86], the IC50 entry in experiment [1], in experiment [2], in experiment [3] (reticulocytes), in experiment [4] (cho), in experiment [5] and in experiment [6] was “Not Active” throughout. In addition, the Ki entry in experiment [5] is given as “Not Active”.

With `c1ccc2c(c1)Nc1ccccc1S2` [PHENOTHIAZINE], the IC50 result in experiment [1] was “Not Active”; in experiment [2], “Not Active”; in experiment [3] (read-out: IC50) it was 4640 nM; in experiment [4] (cho), “Not Active”; in experiment [5], “Not Active”; in experiment [6] it was “Not Active”. In experiment [5], the inhibition constant (Ki) result is reported as “Not Active”.

For the compound POVIDONE, the IC50 result in experiment [1], in experiment [2], in experiment [3] (reticulocytes), in experiment [4] (cho), in experiment [5] and in experiment [6] was “Not Active” in each case. Besides, the Ki entry in experiment [1], in experiment [2], in experiment [3] (reticulocytes), in experiment [4] (cho), in experiment [5] and in experiment [6] was “Not Active” each time.

Take `CCO` [ALCOHOL]: the IC50 result in experiment [1], in experiment [2], in experiment [3] (reticulocytes), in experiment [4] (cho), in experiment [5] and in experiment [6] was “Not Active” throughout. Further, in experiment [5], the Ki result was “Not Active”.

Regarding `Clc1cc(Cl)c(OCC#CI)cc1Cl` [HALOPROGIN], the IC50 result in experiment [1] is “Not Active”; in experiment [2], “Not Active”; in experiment [3] (reticulocytes) it was “Not Active”; in experiment [4] (read-out: IC50), 488 nM; in experiment [5], “Not Active”; in experiment [6], “Not Active”. The Ki in experiment [4] (read-out: Ki) was 166 nM; in experiment [5], “Not Active”.

For CHROMIC CHLORIDE, the IC50 entry in experiment [1], in experiment [2], in experiment [3] (reticulocytes), in experiment [4] (cho), in experiment [5] and in experiment [6] was “Not Active” in each case. Moreover, the Ki entry in experiment [1], in experiment [2], in experiment [3] (reticulocytes), in experiment [4] (cho), in experiment [5] and in experiment [6] was “Not Active” in each case.

With `OC[C@H]1OC2C3[C@@H](CO)OC(O[C@H]4[C@H](O)[C@@H](O)[C@@H](O[C@H]5[C@H](O)[C@@H](O)[C@@H](O[C@H]6[C@H](O)[C@@H](O)[C@@H](O[C@H]7[C@H](O)[C@@H](O)[C@@H](O[C@H]8[C@H](O)[C@@H](O)[C@@H](O[C@H]9[C@H](O)[C@@H](O)C(OC1[C@H](O)[C@H]2O)O[C@@H]9CO)O[C@@H]8CO)O[C@@H]7CO)O[C@@H]6CO)O[C@@H]5CO)O[C@@H]4CO)[C@H](O)[C@H]3O`, the IC50 result in experiment [1], in experiment [2], in experiment [3] (reticulocytes), in experiment [4] (cho), in experiment [5] and in experiment [6] was “Not Active” in each case. Also, in experiment [5], the Ki entry was “Not Active”.

Take `O=c1[nH]cnc2c1ncn2[C@H]1CC[C@@H](CO)O1` [DIDANOSINE]: the IC50 result in experiment [1], in experiment [2], in experiment [3] (reticulocytes), in experiment [4] (cho), in experiment [5] and in experiment [6] was “Not Active” each time. Also, in experiment [5], the inhibition constant (Ki) entry is reported as “Not Active”.

For `Cl.NC[C@H]1CC[C@H](C(=O)Oc2ccc(CCC(=O)O)cc2)CC1` [CETRAXATE HYDROCHLORIDE], the half-inhibitory concentration (IC50) entry in experiment [1], in experiment [2], in experiment [3] (reticulocytes), in experiment [4] (cho), in experiment [5] and in experiment [6] was “Not Active” each time. Besides, in experiment [5], the Ki result is “Not Active”.

On to `CC(C)Cn1cnc2c(N)nc3ccccc3c21` [IMIQUIMOD], for which the IC50 result in experiment [1], in experiment [2], in experiment [3] (reticulocytes), in experiment [4] (cho), in experiment [5] and in experiment [6] was “Not Active” throughout. For the same compound, the Ki result in experiment [5] was “Not Active”.

A word on the IC50: it is the midpoint of a concentration-inhibition curve. One may read the Ki as the equilibrium dissociation constant of an inhibitor or competing ligand from its target.
